Data on 20 compounds can be found in PubChem BioAssay AID330 (DTP/NCI, 2004).

The test system of this experiment is P388 leukemia ip, CD2F1 mice, survival T/C. The experiment in a line: NCI In Vivo Anticancer Drug Screen. Data for tumor model P388 Leukemia (intraperitoneal) in CD2F1 (CDF1) mice. Particulars: endpoint: median survival time, higher = longer survival. An outline of the steps: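 Mice carrying the transplanted tumor received test compound or vehicle. Survival was recorded in each group, and the value is the treated-group measurement divided by that of the vehicle-treated control group.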

Setting [1] is: dose: 50.0 mg/kg/injection, schedule: Q01DX009 (ip), vehicle: Klucel (hydroxypropylcellulose) (HPC).
The mark [2] stands for this setting: dose: 100.0 mg/kg/injection, schedule: Q01DX009 (ip), vehicle: Klucel (hydroxypropylcellulose) (HPC).
Where [3] appears, read: dose: 200.0 mg/kg/injection, schedule: Q01DX009 (ip), vehicle: Klucel (hydroxypropylcellulose) (HPC).
The mark [4] stands for this setting: dose: 50.0 mg/kg/injection, schedule: Q01DX009 (ip), vehicle: saline.
Setting [5] is: dose: 100.0 mg/kg/injection, schedule: Q01DX009 (ip), vehicle: saline.
Where [6] appears, read: dose: 50.0 mg/kg/injection, schedule: Q01DX005 (ip), vehicle: Klucel (hydroxypropylcellulose) (HPC).
The mark [7] stands for this setting: dose: 100.0 mg/kg/injection, schedule: Q01DX005 (ip), vehicle: Klucel (hydroxypropylcellulose) (HPC).
The mark [8] stands for this setting: dose: 120.0 mg/kg/injection, schedule: Q01DX005 (ip), vehicle: saline with Tween-80.
Setting [9] is: dose: 240.0 mg/kg/injection, schedule: Q01DX005 (ip), vehicle: saline with Tween-80.

“And” between values parts separate entries of the source, which are not always exact repeats. Equal values may be shown once. Toxic doses and inconclusive results are not listed.

On to `CC1(C)CC[C@]2(C(=O)O)CC[C@]3(C)C(=CC[C@@H]4[C@@]5(C)C[C@H](O)[C@H](O)[C@@](C)(C(=O)O)[C@@H]5CC[C@]43C)[C@@H]2C1`, for which the T/C (dose: 1.1 mg/kg/injection, schedule: Q01DX005 (ip), vehicle: Klucel (hydroxypropylcellulose) (HPC)) was 91 % of control; the T/C (dose: 2.12 mg/kg/injection, schedule: Q01DX005 (ip), vehicle: Klucel (hydroxypropylcellulose) (HPC)) was 89 % of control; the T/C (dose: 4.25 mg/kg/injection, schedule: Q01DX005 (ip), vehicle: Klucel (hydroxypropylcellulose) (HPC)) was 100 % of control and 91 % of control; the T/C (dose: 8.5 mg/kg/injection, schedule: Q01DX005 (ip), vehicle: Klucel (hydroxypropylcellulose) (HPC)) is 88 % of control and 90 % of control; the T/C (dose: 17.0 mg/kg/injection, schedule: Q01DX005 (ip), vehicle: Klucel (hydroxypropylcellulose) (HPC)) is 92 % of control and 93 % of control; the T/C (dose: 34.0 mg/kg/injection, schedule: Q01DX005 (ip), vehicle: Klucel (hydroxypropylcellulose) (HPC)) was 87 % of control.
Regarding `CCOc1ccc(NC(=O)OCc2c3ccccc3cc3ccccc23)cc1`, the T/C under setting [1] is 100 % of control, the T/C under setting [2] was 96 % of control and the T/C under setting [3] is 105 % of control.
Regarding `CC1NCCCN(CCN(C)C)CCCNC(C)c2cccc1n2` (stereo not given), the T/C runs as follows: (dose: 50.0 mg/kg/injection, schedule: Q01DX001 (ip), vehicle: saline) 103 % of control and 96 % of control; (dose: 100.0 mg/kg/injection, schedule: Q01DX001 (ip), vehicle: saline) 101 % of control and 114 % of control and 92 % of control; (dose: 200.0 mg/kg/injection, schedule: Q01DX001 (ip), vehicle: saline) 103 % of control and 122 % of control and 97 % of control.
`S=c1[nH]c2ccccc2[nH]1`: the T/C (dose: 6.25 mg/kg/injection, schedule: Q01DX009 (ip), vehicle: saline) is 98 % of control; the T/C (dose: 12.5 mg/kg/injection, schedule: Q01DX009 (ip), vehicle: saline) is 102 % of control; the T/C under setting [4] is 98 % of control.
As for `Nc1cccc(S(=O)(=O)Nc2ncc(Cl)cn2)c1.[Ag]`, the T/C is 93 % of control under setting [4] and 108 % of control under setting [5].
In the case of `CNC(=O)n1cnc2ccccc21`, the T/C is 110 % of control and 111 % of control (dose: 100.0 mg/kg/injection, schedule: Q01DX009 (ip), vehicle: saline with Tween-80); 105 % of control and 118 % of control (dose: 200.0 mg/kg/injection, schedule: Q01DX009 (ip), vehicle: saline with Tween-80); 120 % of control and 124 % of control (dose: 400.0 mg/kg/injection, schedule: Q01DX009 (ip), vehicle: saline with Tween-80).
For `COc1ccc2c(c1OC)C(O)(Cc1ccccc1)OC2C1c2c(cc3c(c2OC)OCO3)CCN1C` (stereo not given), the T/C reads like this: under setting [6], 106 % of control; under setting [7], 104 % of control; (dose: 200.0 mg/kg/injection, schedule: Q01DX005 (ip), vehicle: Klucel (hydroxypropylcellulose) (HPC)) 95 % of control.
Regarding `CCOP(=S)(OCC)Oc1ccc([N+](=O)[O-])cc1`, the T/C was 102 % of control (dose: 0.06 mg/kg/injection, schedule: Q01DX009 (ip), vehicle: saline); 106 % of control (dose: 0.12 mg/kg/injection, schedule: Q01DX009 (ip), vehicle: saline); 107 % of control (dose: 0.25 mg/kg/injection, schedule: Q01DX009 (ip), vehicle: saline); 100 % of control (dose: 0.5 mg/kg/injection, schedule: Q01DX009 (ip), vehicle: saline).
In the case of `O=C1CCC/C1=C1/SS/C(=C2/CCCC2=O)S1`, the T/C was 101 % of control under setting [1], 102 % of control under setting [2] and 98 % of control under setting [3].
In the case of `COc1ccc(CCN2C(=O)NC(=O)C2=O)cc1OC`, the T/C is, setting by setting: (dose: 60.0 mg/kg/injection, schedule: Q01DX005 (ip), vehicle: saline with Tween-80) 97 % of control; under setting [8], 101 % of control; under setting [9], 97 % of control.
`CC1(c2ccccc2)CCCCC/C1=N/Nc1ccc([N+](=O)[O-])cc1[N+](=O)[O-]` (stereo not given): the T/C is, setting by setting: (dose: 25.0 mg/kg/injection, schedule: Q01DX005 (ip), vehicle: Klucel (hydroxypropylcellulose) (HPC)) 97 % of control; under setting [6], 90 % of control; under setting [7], 94 % of control.
Regarding `Cc1cnc(=O)[nH]c1NOCc1ccccc1`, the T/C reads like this: (dose: 15.0 mg/kg/injection, schedule: Q01DX001 (ip), vehicle: saline) 98 % of control; (dose: 30.0 mg/kg/injection, schedule: Q01DX001 (ip), vehicle: saline) 105 % of control; (dose: 60.0 mg/kg/injection, schedule: Q01DX001 (ip), vehicle: saline) 100 % of control.
`COc1ccc2nc3cc(Cl)ccc3c(Nc3cccc(NC(C)=O)c3)c2n1`: the T/C reads like this: (dose: 6.25 mg/kg/injection, schedule: Q01DX009 (ip), vehicle: other) 108 % of control; (dose: 12.5 mg/kg/injection, schedule: Q01DX009 (ip), vehicle: other) 102 % of control; (dose: 25.0 mg/kg/injection, schedule: Q01DX009 (ip), vehicle: other) 102 % of control; (dose: 50.0 mg/kg/injection, schedule: Q01DX009 (ip), vehicle: other) 98 % of control; (dose: 100.0 mg/kg/injection, schedule: Q01DX009 (ip), vehicle: other) 99 % of control.
In the case of `CS(=O)(=O)OC1COCC1OS(C)(=O)=O` (stereo not given), the T/C is, setting by setting: (dose: 100.0 mg/kg/injection, schedule: Q01DX001 (ip), vehicle: Klucel (hydroxypropylcellulose) (HPC)) 95 % of control; (dose: 100.0 mg/kg/injection, schedule: Q04DX003 (ip), vehicle: Klucel (hydroxypropylcellulose) (HPC)) 99 % of control; (dose: 200.0 mg/kg/injection, schedule: Q01DX001 (ip), vehicle: Klucel (hydroxypropylcellulose) (HPC)) 95 % of control; (dose: 200.0 mg/kg/injection, schedule: Q04DX003 (ip), vehicle: Klucel (hydroxypropylcellulose) (HPC)) 100 % of control; (dose: 400.0 mg/kg/injection, schedule: Q01DX001 (ip), vehicle: Klucel (hydroxypropylcellulose) (HPC)) 100 % of control; (dose: 400.0 mg/kg/injection, schedule: Q04DX003 (ip), vehicle: Klucel (hydroxypropylcellulose) (HPC)) 107 % of control.
Regarding `O=C(NC1CCCCC1)OCc1c(COC(=O)NC2CCCCC2)c2cccn2c2c1cnn2-c1ccccc1`, the T/C by setting is: (dose: 15.0 mg/kg/injection, schedule: Q01DX005 (ip), vehicle: saline with Tween-80) 93 % of control; (dose: 30.0 mg/kg/injection, schedule: Q01DX005 (ip), vehicle: saline with Tween-80) 88 % of control and 89 % of control; under setting [8], 92 % of control and 96 % of control; under setting [9], 99 % of control.
As to `NCCCNCCCCNC(=O)C(O)NC(=O)CC(O)CCCCN=C(N)N` (stereo not given), the T/C was 152 % of control (dose: 6.25 mg/kg/injection, schedule: Q01DX005 (ip), vehicle: saline); 160 % of control (dose: 25.0 mg/kg/injection, schedule: Q01DX005 (ip), vehicle: saline); 150 % of control and 154 % of control (dose: 50.0 mg/kg/injection, schedule: Q01DX005 (ip), vehicle: saline); 156 % of control and 169 % of control (dose: 100.0 mg/kg/injection, schedule: Q01DX005 (ip), vehicle: saline).
`Oc1c(Br)cc(Br)cc1/C=N/NC(=S)NC12CC3CC(CC(C3)C1)C2`: the T/C by setting is: (dose: 30.0 mg/kg/injection, schedule: Q01DX005 (ip), vehicle: Klucel (hydroxypropylcellulose) (HPC)) 87 % of control; (dose: 60.0 mg/kg/injection, schedule: Q01DX005 (ip), vehicle: Klucel (hydroxypropylcellulose) (HPC)) 87 % of control; (dose: 120.0 mg/kg/injection, schedule: Q01DX005 (ip), vehicle: Klucel (hydroxypropylcellulose) (HPC)) 88 % of control and 93 % of control; (dose: 240.0 mg/kg/injection, schedule: Q01DX005 (ip), vehicle: Klucel (hydroxypropylcellulose) (HPC)) 89 % of control.
For `O=C1C(c2ccccc2)SC(=S)N1c1ccccc1` (stereo not given), the T/C by setting is: under setting [4], 105 % of control; under setting [5], 92 % of control; (dose: 200.0 mg/kg/injection, schedule: Q01DX009 (ip), vehicle: saline) 89 % of control.
In the case of `Cc1ccccc1-n1c(=S)n(-c2ccc(Cl)cc2)c2nc3ccccc3nc1/c2=N/Nc1ccccc1`, the T/C is, setting by setting: (dose: 12.5 mg/kg/injection, schedule: Q01DX005 (ip), vehicle: saline with Tween-80) 95 % of control; (dose: 25.0 mg/kg/injection, schedule: Q01DX005 (ip), vehicle: saline with Tween-80) 96 % of control; (dose: 50.0 mg/kg/injection, schedule: Q01DX005 (ip), vehicle: saline with Tween-80) 94 % of control.
As for `O=C1N(Br)C(=O)C(c2ccc(Cl)cc2)(c2ccc(Cl)cc2)N1Br`, the T/C is, setting by setting: (dose: 11.0 mg/kg/injection, schedule: Q01DX009 (ip), vehicle: saline with Tween-80) 122 % of control; (dose: 150.0 mg/kg/injection, schedule: Q01DX009 (ip), vehicle: saline with Tween-80) 154 % of control.
